According to ChEMBL document CHEMBL2311428, “Binding partners for curcumin in human schwannoma cells: biologic implications” (Bioorg Med Chem, 2013):
Activity calls are given as the source filed them. The calls are words filed in the database; no cut-off is given here.

How the values were obtained:
[1] = molecular target: Heat shock protein HSP90 (Homo sapiens) (UniProt P07900+P08238); assay: Binding affinity to Hsp90 in human HEI-193 cells harboring NF2 mutant at 100 uM after 30 mins by SDS-PAGE analysis; type: cell-based
[2] = Cytotoxicity against human HEI-193 cells harboring NF2 mutant assessed as growth inhibition after 72 hrs by MTT assay; type: functional, cell-based; details: HEI-193, 72 h
[3] = molecular target: Actin, cytoplasmic 1 (Homo sapiens) (UniProt P60709); assay: Binding affinity to beta-actin in human HEI-193 cells harboring NF2 mutant at 100 uM after 30 mins by SDS-PAGE analysis; type: cell-based
[4] = molecular target: T1, D-3-phosphoglycerate dehydrogenase (Homo sapiens) (UniProt O43175); assay: Binding affinity to 3-PGDH in human HEI-193 cells harboring NF2 mutant at 100 uM after 30 mins by SDS-PAGE analysis; type: cell-based
T1 sequence (whole entry): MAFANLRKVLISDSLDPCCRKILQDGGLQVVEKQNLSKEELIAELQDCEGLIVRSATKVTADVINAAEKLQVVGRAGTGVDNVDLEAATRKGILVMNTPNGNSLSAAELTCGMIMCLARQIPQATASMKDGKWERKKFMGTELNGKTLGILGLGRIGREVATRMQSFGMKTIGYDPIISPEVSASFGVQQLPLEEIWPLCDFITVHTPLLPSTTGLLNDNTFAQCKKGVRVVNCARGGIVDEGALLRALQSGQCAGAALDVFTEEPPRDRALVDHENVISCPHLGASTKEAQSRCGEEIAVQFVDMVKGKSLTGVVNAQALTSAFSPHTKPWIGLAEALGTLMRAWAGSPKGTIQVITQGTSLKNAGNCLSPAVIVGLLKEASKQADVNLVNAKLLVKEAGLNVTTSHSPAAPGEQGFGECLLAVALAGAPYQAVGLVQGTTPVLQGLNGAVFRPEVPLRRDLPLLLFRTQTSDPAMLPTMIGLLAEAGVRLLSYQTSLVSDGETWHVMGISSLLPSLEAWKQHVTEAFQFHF

HEI-193 = assay: Binding affinity to Hsp70 in human HEI-193 cells harboring NF2 mutant at 100 uM after 30 mins by SDS-PAGE analysis; type: cell-based
[5] = Downregulation of Hsp27 expression in human keratinocytes at 10 uM; type: functional, cell-based; details: Keratinocyte

SMILES | Activity [1] | IC50 [2] | Activity [3] | Activity [4] | Activity (HEI-193) | Activity [5]
COc1cc(/C=C/C(=O)CC(=O)/C=C/c2ccc(OC(=O)CCCC(=O)NCCCOCCOCCOCCCNC(=O)CCCC[C@@H]3SC[C@@H]4NC(=O)N[C@@H]43)c(OC)c2)ccc1O | Active | 36 µM | Active | Active | Active | –
COc1cc(/C=C/C(=O)CC(=O)/C=C/c2ccc(O)c(OC)c2)ccc1O [CURCUMIN] | – | 18 µM | – | – | – | 34%
